Experimental data: PubChem BioAssay AID1508591

Conditions: rat; liver microsomes; pH 7.4; 15.0 min; 1.0 µM

SMILES | half-life
CCOc1ccc(CCNC(=O)c2cc3sccc3n2C)cc1OCC | 1.6 min
CN1CCN(C(=O)Cc2c[nH]c3ncc(-c4ccccc4Oc4ccccc4)cc23)CC1 | 1.72 min
COc1cc(-c2nc(Cn3nnc(C(=O)Nc4cc(C)cc(C)c4)c3C)c(C)o2)cc(OC)c1OC | 20.6 min
O=S(=O)(Nc1ccc(C2CCNCC2)cc1)c1ccc(NCc2cccc(Cl)c2O)cc1 | 20 min
Cc1nc(-c2ccccc2)cc([C@H]2CN3CC[C@H]2C[C@@H]3CNC2CCOCC2)n1 | > 30 min
COC(=O)c1ccnc(NC(=S)N2CCN(c3cccc(C(F)(F)F)c3)CC2)c1 | > 30 min
Cc1cn(-c2cc(NC(=O)c3ccc(C)c(Nc4nccc(-c5cccnc5)n4)c3)cc(C(F)(F)F)c2)cn1 | > 30 min
C=CCON=C(C[C@H]1O[C@@H]2O[C@]3(C)CC[C@@H]4[C@H](C)CC[C@@H]([C@H]1C)[C@@]24OO3)[C@H]1O[C@@H]2O[C@]3(C)CC[C@H]4[C@H](C)CC[C@@H]([C@@H]1C)[C@@]24OO3 | 2.8 min
CSc1ccc(-c2cnc(N3CCC(C(N)=O)CC3)s2)cc1 | 1.53 min
Cc1cccc(-n2ccc(=O)c(C(=O)Nc3ccc(S(=O)(=O)Nc4nccs4)cc3)n2)c1 | > 30 min
CN(C)CC(=O)NC1CCCc2c1cnn2-c1ccc(F)cc1F (stereo not drawn) | > 30 min
Cc1ccc(S(=O)(=O)Nc2cc(Cl)c(Cl)cc2C(=O)Nc2nc(-c3ccccc3)cs2)cc1 | 13 min
O=C(c1cnc(N2CCCCC2)c2ccccc12)N1CCN(c2ccccn2)CC1 | 2.1 min
Cc1ccnc(NC(=S)N2CCC(Nc3cccc(C(F)(F)F)c3)CC2)c1 | 20 min
S=C(NCCCc1cnc[nH]1)NCCCN(Cc1ccc(Cl)c(Cl)c1)c1ccc(Br)cn1 | > 30 min
Cc1ccc(-n2ncc3c(Nc4cccc(C(=O)O)c4)ncnc32)cc1 | > 30 min
CN(C(=O)CNC(=O)c1ccccc1OCC(=O)Nc1ccc(I)cc1)c1ccccc1 | 1.44 min
Cc1ccnc(NC(=S)N2CCN(c3ccc(C(F)(F)F)cc3[N+](=O)[O-])CC2)c1 | > 30 min
COc1ccccc1NC(=O)C1=C(C)Nc2c(C(=O)Nc3cccc(C)c3)cnn2C1c1ccccc1Cl (stereo not drawn) | 2.98 min
CC(C)(C)c1ccc(S(=O)(=O)N2CCC(c3ccncc3)CC2)cc1 | 14.3 min
O=C1CCCC2=C1C(c1[nH]ncc1Cl)N=C(Nc1nc3cccc(Cl)c3o1)N2 (stereo not drawn) | 4.5 min
COc1ccc(-n2nc(C3CCN(C(=O)c4ccccc4)CC3)[nH]c2=O)cc1 | > 30 min
NC(=O)C1CCN(c2nc(-c3cccnc3)cs2)CC1 | > 30 min
COc1ccc(CN2CCc3c(c(=O)n4ncc(C(=O)N5CCN(c6ccccc6OC)CC5)c4n3C)C2)cc1 | 1.97 min
O=C(NCc1cccc(C(F)(F)F)c1)c1ccc(CN2CCCCC2)cc1 | 15 min
Cn1nnnc1Sc1ncnc2scc(Br)c12 | 19.6 min
COC(=O)CNC(=O)c1nc(-c2ccc(Cl)cc2Cl)c2cnccn12 | 3.71 min

SMILES | half-life
Cc1ccc2oc(NC3=NC(c4[nH]ncc4Cl)C4=C(CCCC4=O)N3)nc2c1 (stereo not drawn) | 1.7 min
COc1ccc(-c2csc(C3=C(O)CN(Cc4ccc(Cl)cc4)C3=N)n2)cc1OC | 12 min
COc1cccc(CNc2ccc(S(=O)(=O)Nc3ccc(-c4ccccc4)cc3)cc2)c1O | 2.7 min
COc1ccc(-n2cnc3cc(C(=O)N4CCCCC4)ccc32)cc1 | 20.7 min
CN1CCC(N(Cc2cccs2)c2ccccc2)CC1 | 1.37 min
CCC(CC)c1cc([C@H]2CN3CC[C@H]2C[C@@H]3CNC(=O)COc2ccccc2)nc(-c2ccncc2)n1 | 2.38 min
O=C(O)c1ccc(N2C(=O)/C(=C/c3ccc(-c4ccc([N+](=O)[O-])cc4)o3)C=C2c2ccccc2)cc1 | > 30 min
CC(NCc1ccc2c(c1)nc(NC(=O)c1ccc(-c3cn[nH]c3)s1)n2CC(C)(C)O)C(C)(C)C (stereo not drawn) | 18.8 min
COc1ccc(C(=O)NC2CCN(c3cnn(CC4CC4)c(=O)c3)CC2)cc1 | > 30 min
NC(=O)COc1cccc(C2CC(=O)Nc3nc(N4CCCCC4)sc32)c1 (stereo not drawn) | 5.1 min
N#Cc1cccc(-c2csc(N3CCC(C(N)=O)CC3)n2)c1 | 1.74 min
COc1cc(OC)cc(-c2csc(N3CCC(C(N)=O)CC3)n2)c1 | 2.09 min
COc1ccccc1-n1cnc2cc(C(=O)N3CCCCC3)ccc21 | 3.2 min
O=C(c1nc(-c2ccc(Cl)nc2)c2ccccn12)N1CCCC1 | 8.91 min
CN(C)C(=O)c1ccc(-c2cc[nH]c(=O)c2N)cc1 | > 30 min
CC(C)c1nc(CN(C)C(=O)N[C@H](C(=O)N[C@@H](Cc2ccccc2)C[C@H](O)[C@H](Cc2ccccc2)NC(=O)OCc2cncs2)C(C)C)cs1 | 22.1 min
CS(=O)(=O)Nc1cccc(-c2nccc(-n3ccnc3)n2)c1 | > 30 min
CCCc1nnc(NC(=O)c2nc(S(=O)(=O)Cc3ccc(C)cc3)ncc2Cl)s1 | 5.28 min
CN(C)C(=O)C1CCN(c2nc(-c3ccc(Br)cc3)cs2)CC1 | > 30 min
Cc1ccccc1OCC(O)CO (stereo not drawn) | > 30 min
COCCNC(=O)c1ccc(-c2ncc3cnc(-c4cccc(F)c4)cn23)cc1 | > 30 min
COc1cccc(CNc2ccc(S(=O)(=O)Nc3nccs3)cc2)c1 | 15 min
Cc1sc2c(c1C)C(c1ccc(Cl)cc1)=N[C@H](CC(=O)NCCCCNC(=O)COc1cccc3c1C(=O)N([C@H]1CCC(=O)NC1=O)C3=O)c1nnc(C)n1-2 | 4.93 min
CCOC(=O)c1c(NC(=O)CN2CCCCC2)sc2c1CCN(C(=O)OCC)C2 | 5.2 min
CN([C@@H](Cc1ccc(OS(=O)(=O)c2cccc3cnccc23)cc1)C(=O)N1CCN(c2ccccc2)CC1)S(=O)(=O)c1cccc2cnccc12 | 1 min
CCOP(=O)(Cc1ccc(C(=O)Nc2ccc(Br)cc2C#N)cc1)OCC | > 30 min
CCCCN(C)C(=O)c1c(C)sc2ccn(CCC)c(=O)c12 | 13.3 min

More lines, now with the values ahead:

half-life | SMILES
1.54 min | CC1=Nc2cc(C(=O)NCCc3ccccc3)ccc2Sc2c(C)ccc(C)c21
> 30 min | COc1ccccc1-c1cc2c(ccn2C)c(C(=O)NCC2CCN(C)C(=O)C2)n1 (stereo not drawn)
> 30 min | O=C(Nc1ncc(Cc2ccc(C(F)(F)F)cc2)s1)c1ccc(-c2ccccc2)o1
10 min | COc1cccc(CNc2ccc(S(=O)(=O)Nc3ccc4ccccc4c3)cc2)c1O
17.7 min | CNc1oc(-c2cccc3ccccc23)nc1C#N
> 30 min | CN(C)CCNC(=O)c1nc2nc(-c3ccccc3)c(-c3cccc(Cl)c3)cc2n1C
8.12 min | CCN1C(=O)c2ccccc2S(=O)c2ccc(C(=O)NCc3ccccc3)cc21 (stereo not drawn)
10 min | OCC(O)CCO/N=C1/C(c2c(O)[nH]c3ccccc23)=Nc2ccccc21 (stereo not drawn)
26 min | O=C1Nc2ccccc2/C1=C\c1cc(Br)c(O)c(Br)c1
2.98 min | COC(=O)c1ccc(NC(=O)c2nc3ccccc3n(C)c2=O)cc1
2.1 min | CC(C)c1ccc(Nc2c(-c3ccccn3)nc3ccccn23)cc1
1.21 min | Cc1ccc(C)c(SC2=NS(=O)(=O)c3ccccc32)c1
11 min | FC(F)(F)c1cccc(Sc2nc(-c3ccccc3)nnc2C(F)(F)F)c1
> 30 min | O=C(Nc1ccc2oc(-c3ccccc3F)nc2c1)c1ccc([N+](=O)[O-])o1
> 30 min | O=C(NC1CCN(c2cc(-c3ccc(Cl)cc3)[nH]n2)C1)c1ccccc1 (stereo not drawn)
> 30 min | O=C(O)c1cccc(-c2noc(-c3ccccc3F)n2)c1
8.6 min | Fc1cc(Nc2nc(-c3ccncc3)nc3ccccc23)ccc1-c1ccnc(C(F)(F)F)c1
19.5 min | COc1ccc(Nc2cc3c(nc2OC)nc(CCc2ccccc2)n3C)cn1
24 min | O=S(=O)(Nc1nccs1)c1ccc(NCc2ccccc2O)cc1
21 min | Fc1cnc(-c2ccccc2C(F)F)nc1NCc1ccc(-n2ccnn2)cc1
6.28 min | Nc1nc2c(s1)C(c1ccccc1OCc1ccccc1Cl)CC(=O)N2 (stereo not drawn)
1.7 min | Clc1ccccc1-c1nnc2sc(-c3ccc4c(c3)OCO4)nn12
11 min | Cc1cc(/C=C2/C(=O)Nc3ccccc32)cc(C)c1O
> 30 min | CC1=C(C(=O)Nc2ccccc2)C(c2ccc[nH]2)n2ncnc2N1 (stereo not drawn)
11 min | COc1cccc(CNc2ccc(S(=O)(=O)Nc3nccs3)cc2)c1OC

half-life | SMILES
10 min | COc1cccc(CNc2ccc(S(=O)(=O)Nc3cccc4ccncc34)cc2)c1O
> 30 min | O=C(c1ccc2ccccc2c1)N1CCN(c2ccc(O)cc2)CC1
> 30 min | CNc1oc(-c2ccc(-c3ccccc3)cc2)nc1C#N
> 30 min | CC(C)c1c(-c2ccccc2)nc2c(C#N)c[nH]n2c1=O
> 30 min | Nc1ncccc1-c1nc2ccc(-c3ccccc3)nc2n1-c1ccc(C2(N)CCC2)cc1
> 30 min | Fc1ccc(Nc2cc(-c3ccccc3)nc(-c3ccncc3)n2)cc1F
23 min | CC(Nc1ncnc2c1cnn2-c1cccc(Cl)c1)c1ccccc1 (stereo not drawn)
13 min | O=[S+]([O-])(Nc1ccccc1)c1ccc(NCc2cccc(C(F)(F)F)c2Cl)cc1
2.97 min | FC(F)(F)c1ccccc1-c1nc(NCc2cccc(Cl)c2)c2ccccc2n1
20 min | O=C(Nc1nc(-c2ccccc2)cs1)c1ccncc1NS(=O)(=O)c1ccc(F)cc1
2.55 min | CC(C(O)c1ccc(O)cc1)N1CCC(Cc2ccccc2)CC1 (stereo not drawn)
1.88 min | O=S(=O)(c1ccccc1)c1nnn2c1nc(NCc1cccs1)c1sccc12
> 30 min | COc1ccc(Cl)cc1C(=O)Nc1ccc(NC(=O)c2ccco2)cc1
19 min | FC(F)(F)Oc1cccc(Nc2nc(-c3ccncc3)nc3ccccc23)c1
> 30 min | CCCc1c(CC)c(=N)c2ccccc2n1C
2.31 min | COc1ccccc1C(=O)NC1CCCc2c1[nH]c1c(Cl)cccc21 (stereo not drawn)
1.69 min | COc1ccc(-c2noc(CSc3nnc(Cc4ccccc4)n3-c3ccc(F)cc3)n2)cc1
1.65 min | CC(C)N(CCC(=O)c1ccc2ccccc2c1)Cc1ccccc1
14 min | O=C1Nc2ccccc2/C1=C\c1ccc(O)cc1
7.1 min | Fc1cnc(-c2ccccc2C(F)F)nc1NCc1ccc(-c2cccnc2)cc1
> 30 min | O=C(Nc1ncc(Cc2ccc(C(F)(F)F)cc2)s1)c1cn(-c2ccccc2)cn1
23.9 min | Cc1ccccc1C(=O)Nc1sc2c(c1C(=O)NCc1ccco1)CCC(C(C)(C)C)C2 (stereo not drawn)
8.98 min | COc1cccc(Nc2ncc(-c3cccc(N(C)C)c3)c3c2OCC3)c1
> 30 min | Cc1nc(N)nc2ccccc12
